The subject of the experiment is CD2F1 mice, L1210 leukemia ip, survival T/C. Briefly: NCI In Vivo Anticancer Drug Screen. Data for tumor model L1210 Leukemia (intraperitoneal) in CD2F1 (CDF1) mice. The settings on record: higher = longer survival. The method in brief: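 Tumor-bearing mice (transplanted tumor) were split into treated and vehicle control groups, and the measured endpoint of each treated group was divided by that of its vehicle controls.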

The mark [1] stands for this setting: endpoint: mean survival time, dose: 100.0 mg/kg/injection, schedule: Q01DX009 (ip), vehicle: saline.
Setting [2] is: endpoint: mean survival time, dose: 200.0 mg/kg/injection, schedule: Q01DX009 (ip), vehicle: saline.
Where [3] appears, read: endpoint: mean survival time, dose: 50.0 mg/kg/injection, schedule: Q01DX009 (ip), vehicle: saline.
The mark [4] stands for this setting: endpoint: mean survival time, dose: 100.0 mg/kg/injection, schedule: Q01DX009 (ip), vehicle: saline with Tween-80.
The mark [5] stands for this setting: endpoint: mean survival time, dose: 200.0 mg/kg/injection, schedule: Q01DX009 (ip), vehicle: saline with Tween-80.
[6] abbreviates: endpoint: mean survival time, dose: 400.0 mg/kg/injection, schedule: Q01DX009 (ip), vehicle: saline with Tween-80.
Setting [7] is: endpoint: mean survival time, dose: 100.0 mg/kg/injection, schedule: Q04DX003 (ip), vehicle: saline.
The mark [8] stands for this setting: endpoint: mean survival time, dose: 100.0 mg/kg/injection, schedule: Q04DX002 (ip), vehicle: saline with Tween-80.
The mark [9] stands for this setting: endpoint: mean survival time, dose: 200.0 mg/kg/injection, schedule: Q04DX002 (ip), vehicle: saline with Tween-80.
Where [10] appears, read: endpoint: mean survival time, dose: 400.0 mg/kg/injection, schedule: Q04DX002 (ip), vehicle: saline with Tween-80.
[11] abbreviates: endpoint: mean survival time, dose: 100.0 mg/kg/injection, schedule: Q04DX003 (ip), vehicle: saline with Tween-80.
The mark [12] stands for this setting: endpoint: mean survival time, dose: 200.0 mg/kg/injection, schedule: Q04DX003 (ip), vehicle: saline with Tween-80.
[13] abbreviates: endpoint: mean survival time, dose: 400.0 mg/kg/injection, schedule: Q04DX003 (ip), vehicle: saline with Tween-80.

Values joined by “and” are separate entries in the source; they are usually repeats but may differ in a detail not shown here. Equal entries are not always repeated. Inconclusive results and toxic doses are left out.

For the compound `CC/C(C)=N\O`, the T/C was 97 % of control under setting [1]; 111 % of control under setting [2]; 97 % of control (endpoint: mean survival time, dose: 400.0 mg/kg/injection, schedule: Q01DX009 (ip), vehicle: saline).

As to `NCCCCCBr`, the T/C was 98 % of control under setting [3], 90 % of control under setting [1] and 98 % of control under setting [2].

`C=C(C(=O)O)C(N)C(=O)O` (configuration not stated): the T/C reads like this: (endpoint: median survival time, dose: 25.0 mg/kg/injection, schedule: Q01DX009 (ip), vehicle: suspension in saline) 96 % of control; (endpoint: median survival time, dose: 50.0 mg/kg/injection, schedule: Q01DX009 (ip), vehicle: suspension in saline) 108 % of control; (endpoint: median survival time, dose: 100.0 mg/kg/injection, schedule: Q01DX009 (ip), vehicle: suspension in saline) 103 % of control; (endpoint: median survival time, dose: 200.0 mg/kg/injection, schedule: Q01DX009 (ip), vehicle: suspension in saline) 94 % of control; (endpoint: median survival time, dose: 400.0 mg/kg/injection, schedule: Q01DX009 (ip), vehicle: suspension in saline) 91 % of control.

Take `COCC1OC(OC)C(OC)C(OC)C1OC` (configuration not stated): the T/C is, setting by setting: under setting [4], 94 % of control; under setting [5], 102 % of control; under setting [6], 105 % of control.

As to `CN(C)CCCN=c1c2ccccc2n(C)c2[nH]c(=O)n(C)c(=O)c12`, the T/C (endpoint: median survival time, dose: 3.75 mg/kg/injection, schedule: Q01DX005 (ip), vehicle: saline) was 105 % of control; the T/C (endpoint: median survival time, dose: 7.5 mg/kg/injection, schedule: Q01DX005 (ip), vehicle: saline) was 109 % of control; the T/C (endpoint: median survival time, dose: 10.8 mg/kg/injection, schedule: Q01DX005 (ip), vehicle: saline) was 107 % of control; the T/C (endpoint: median survival time, dose: 15.0 mg/kg/injection, schedule: Q01DX005 (ip), vehicle: saline) was 111 % of control and 112 % of control; the T/C (endpoint: median survival time, dose: 18.0 mg/kg/injection, schedule: Q01DX005 (ip), vehicle: saline) was 123 % of control; the T/C (endpoint: median survival time, dose: 30.0 mg/kg/injection, schedule: Q01DX005 (ip), vehicle: saline) is 116 % of control and 124 % of control. Moreover, the T/C by setting is: (endpoint: median survival time, dose: 50.0 mg/kg/injection, schedule: Q01DX005 (ip), vehicle: saline) 119 % of control; (endpoint: median survival time, dose: 60.0 mg/kg/injection, schedule: Q01DX005 (ip), vehicle: saline) 120 % of control and 101 % of control; (endpoint: median survival time, dose: 120.0 mg/kg/injection, schedule: Q01DX005 (ip), vehicle: saline) 119 % of control.

Consider `CN(N=O)C(=O)NC1C(CO)OC(n2ccc(=O)[nH]c2=O)C1O` (configuration not stated), for which the T/C by setting is: (endpoint: mean survival time, dose: 13.0 mg/kg/injection, schedule: Q01DX001 (ip), vehicle: saline) 105 % of control; (endpoint: mean survival time, dose: 20.0 mg/kg/injection, schedule: Q01DX001 (ip), vehicle: saline) 107 % of control; (endpoint: mean survival time, dose: 30.0 mg/kg/injection, schedule: Q01DX001 (ip), vehicle: saline) 110 % of control; (endpoint: mean survival time, dose: 44.0 mg/kg/injection, schedule: Q01DX001 (ip), vehicle: saline) 111 % of control; (endpoint: mean survival time, dose: 67.0 mg/kg/injection, schedule: Q01DX001 (ip), vehicle: saline) 107 % of control; (endpoint: mean survival time, dose: 100.0 mg/kg/injection, schedule: Q01DX001 (ip), vehicle: saline) 122 % of control. For the setting “endpoint: mean survival time, dose: 150.0 mg/kg/injection, schedule: Q01DX001 (ip), vehicle: saline”, the T/C is 121 % of control.

Regarding `CCOC1=NC(C)(C)CC(C)O1` (configuration not stated), the T/C (endpoint: mean survival time, dose: 25.0 mg/kg/injection, schedule: Q01DX009 (ip), vehicle: saline) is 109 % of control; the T/C under setting [3] is 109 % of control; the T/C under setting [1] is 103 % of control; the T/C under setting [7] is 97 % of control.

Turning to `C#CCSc1c(Cl)c(Cl)c(Cl)c(Cl)c1Cl`, the T/C is, setting by setting: under setting [8], 87 % of control; under setting [9], 95 % of control; under setting [10], 87 % of control.

Turning to `O=C(OC1C2C=COC(OC3OC(CO)C(O)C(O)C3O)C2C2(CO)OC12)c1ccc(O)cc1` (configuration not stated), the T/C is 101 % of control (endpoint: mean survival time, dose: 25.0 mg/kg/injection, schedule: Q01DX001 (ip), vehicle: carboxymethylcellulose (CMC)); 98 % of control (endpoint: mean survival time, dose: 50.0 mg/kg/injection, schedule: Q01DX001 (ip), vehicle: carboxymethylcellulose (CMC)); 89 % of control (endpoint: mean survival time, dose: 100.0 mg/kg/injection, schedule: Q01DX001 (ip), vehicle: carboxymethylcellulose (CMC)).

On to `CC(C)=NNS(=O)(=O)c1ccccc1`, for which the T/C was 88 % of control (endpoint: mean survival time, dose: 12.5 mg/kg/injection, schedule: Q01DX005 (ip), vehicle: Klucel (hydroxypropylcellulose) (HPC)); 96 % of control (endpoint: mean survival time, dose: 25.0 mg/kg/injection, schedule: Q01DX005 (ip), vehicle: Klucel (hydroxypropylcellulose) (HPC)); 96 % of control (endpoint: mean survival time, dose: 50.0 mg/kg/injection, schedule: Q01DX005 (ip), vehicle: Klucel (hydroxypropylcellulose) (HPC)); 93 % of control (endpoint: mean survival time, dose: 100.0 mg/kg/injection, schedule: Q01DX005 (ip), vehicle: Klucel (hydroxypropylcellulose) (HPC)).

Consider `COc1ccc(/C=C(\C#N)C(=O)NCCc2ccc(OC)c(OC)c2)cc1OC`, for which the T/C is, setting by setting: under setting [8], 95 % of control; under setting [9], 95 % of control; under setting [10], 95 % of control.

Consider `CC(C)(C)[Si](OP(N)(=O)N(CCCl)CCCl)(c1ccccc1)c1ccccc1` (configuration not stated), for which the T/C (endpoint: mean survival time, dose: 15.6 mg/kg/injection, schedule: Q01DX001 (ip), vehicle: distilled water + Tween-80) is 102 % of control; the T/C (endpoint: mean survival time, dose: 31.3 mg/kg/injection, schedule: Q01DX001 (ip), vehicle: distilled water + Tween-80) was 110 % of control; the T/C (endpoint: mean survival time, dose: 62.5 mg/kg/injection, schedule: Q01DX001 (ip), vehicle: distilled water + Tween-80) is 110 % of control; the T/C (endpoint: mean survival time, dose: 125.0 mg/kg/injection, schedule: Q01DX001 (ip), vehicle: distilled water + Tween-80) was 122 % of control; the T/C (endpoint: mean survival time, dose: 250.0 mg/kg/injection, schedule: Q01DX001 (ip), vehicle: distilled water + Tween-80) is 111 % of control; the T/C (endpoint: mean survival time, dose: 500.0 mg/kg/injection, schedule: Q01DX001 (ip), vehicle: distilled water + Tween-80) was 117 % of control.

In the case of `CCN1CCS(=O)(=O)C1=O`, the T/C is, setting by setting: (endpoint: mean survival time, dose: 75.0 mg/kg/injection, schedule: Q01DX001 (ip), vehicle: other) 108 % of control; (endpoint: mean survival time, dose: 150.0 mg/kg/injection, schedule: Q01DX001 (ip), vehicle: other) 115 % of control.

In the case of `COC(COC(=O)N1CCN(C=O)CC1)C1=C(N2CC2)C(=O)C(C)=C(N2CC2)C1=O` (configuration not stated), the T/C is 168 % of control (endpoint: median survival time, dose: 3.0 mg/kg/injection, schedule: Q01DX005 (ip), vehicle: saline); 160 % of control (endpoint: median survival time, dose: 3.6 mg/kg/injection, schedule: Q01DX005 (ip), vehicle: saline); 190 % of control and 191 % of control (endpoint: median survival time, dose: 6.0 mg/kg/injection, schedule: Q01DX005 (ip), vehicle: saline); 111 % of control (endpoint: median survival time, dose: 12.0 mg/kg/injection, schedule: Q01DX005 (ip), vehicle: saline).

Take `CCCCc1c(C)[nH]c(=S)[nH]c1=O`: the T/C runs as follows: under setting [11], 91 % of control; under setting [12], 96 % of control.

For `CCC(=O)Oc1ccc(C2N(Cc3ccc(N(C)C)cc3)CCCN2Cc2ccc(N(C)C)cc2)cc1`, the T/C is, setting by setting: under setting [11], 103 % of control; under setting [5], 89 % of control; under setting [12], 92 % of control.

Regarding `C=CCCCCCCCCC(=O)NCc1cccnc1`, the T/C under setting [11] was 98 % of control, the T/C under setting [12] is 104 % of control and the T/C under setting [13] is 90 % of control.

Turning to `O=C(CNC(=O)Nc1cccc([N+](=O)[O-])c1)N/N=C/c1cc(Br)ccc1O`, the T/C reads like this: (endpoint: mean survival time, dose: 50.0 mg/kg/injection, schedule: Q01DX009 (ip), vehicle: saline with Tween-80) 92 % of control; under setting [4], 88 % of control; under setting [5], 88 % of control.

Turning to `O=C(C[n+]1cccc(C(=O)NCc2ccccc2)c1)Nc1ccc(Cl)cc1`, the T/C under setting [7] was 94 % of control.

With `Cc1cc2nc(-c3ccccc3)c(-c3ccccc3)nc2cc1C`, the T/C runs as follows: under setting [4], 92 % of control; under setting [11], 94 % of control; under setting [5], 92 % of control; under setting [12], 91 % of control; under setting [6], 93 % of control; under setting [13], 95 % of control.

For the origin of these results see PubChem BioAssay AID256 (DTP/NCI, 2004).
